Test [1] in a line: DRUGMATRIX: GABAA, Flunitrazepam, Central radioligand binding (ligand: [3H] Flunitrazepam). It is filed as cell membranes, Rattus norvegicus, Wistar, Brain, Membrane. The settings on record: Not Active = under 50% inhibition at 10 µM.
Test [2] deals with Beta-2 adrenergic receptor (Homo sapiens, UniProt P07550). Nature of the test: DRUGMATRIX: Adrenergic beta2 radioligand binding (ligand: [3H] CGP-12177). The following applies: cho; Not Active = under 50% inhibition at 10 µM. It is filed as cell membranes, CHO, Membrane.
Beta-2 adrenergic receptor, sequence (P07550 whole entry): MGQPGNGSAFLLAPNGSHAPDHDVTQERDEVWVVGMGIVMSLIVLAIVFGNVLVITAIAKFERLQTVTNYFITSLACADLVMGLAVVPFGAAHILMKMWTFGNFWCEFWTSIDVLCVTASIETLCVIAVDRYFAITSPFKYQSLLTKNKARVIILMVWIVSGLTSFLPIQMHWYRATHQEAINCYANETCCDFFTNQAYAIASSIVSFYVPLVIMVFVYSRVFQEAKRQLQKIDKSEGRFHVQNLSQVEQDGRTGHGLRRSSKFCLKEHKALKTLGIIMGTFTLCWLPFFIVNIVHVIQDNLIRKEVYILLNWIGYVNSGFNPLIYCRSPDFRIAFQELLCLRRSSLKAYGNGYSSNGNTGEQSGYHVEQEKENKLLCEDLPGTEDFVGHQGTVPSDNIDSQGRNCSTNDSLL
Test [3] in a line: DRUGMATRIX: Leukotriene, BLT (LTB4) radioligand binding (ligand: [3H]LTB4). The settings on record: u-937; Not Active = under 50% inhibition at 10 µM. It is filed as cell membranes, Membrane.
The target of another test is T1, Adenosine receptor A3 (Homo sapiens, UniProt P0DMS8).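 Further: radioligand binding assay with AB-MECA serving as the labeled ligand; in other assays of this panel Not Active means under 50% inhibition at 10 µM.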
T1 sequence (P0DMS8 whole entry): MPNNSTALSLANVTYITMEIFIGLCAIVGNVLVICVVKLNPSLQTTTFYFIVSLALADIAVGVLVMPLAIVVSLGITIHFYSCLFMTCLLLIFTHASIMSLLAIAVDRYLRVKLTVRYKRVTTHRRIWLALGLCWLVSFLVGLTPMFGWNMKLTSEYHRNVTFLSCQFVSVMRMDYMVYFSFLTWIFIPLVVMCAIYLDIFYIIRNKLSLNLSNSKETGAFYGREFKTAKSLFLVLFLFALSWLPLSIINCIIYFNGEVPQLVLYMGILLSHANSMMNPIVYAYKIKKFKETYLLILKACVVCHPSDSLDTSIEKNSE
It is filed as cell membranes, CHO-K1, Membrane.

Test [4] concerns the target C-C chemokine receptor type 5 (Homo sapiens, UniProt P51681). It is filed as cell membranes, Membrane. The following applies: hek293. Further: in other assays of this panel Not Active means under 50% inhibition at 10 µM.
Test [5] addresses C-C chemokine receptor type 2 (Homo sapiens, UniProt P41597). It is filed as cell membranes, Membrane. The following applies: cho-k1.
Test [6] can be described thus: DRUGMATRIX: Imidazoline I2, Central radioligand binding (ligand: [3H] Idazoxan). It is filed as cell membranes, Rattus norvegicus, Wistar, Cerebral cortex, Membrane. The settings on record: Not Active = under 50% inhibition at 10 µM.

C-C chemokine receptor type 2, sequence (P41597 whole entry): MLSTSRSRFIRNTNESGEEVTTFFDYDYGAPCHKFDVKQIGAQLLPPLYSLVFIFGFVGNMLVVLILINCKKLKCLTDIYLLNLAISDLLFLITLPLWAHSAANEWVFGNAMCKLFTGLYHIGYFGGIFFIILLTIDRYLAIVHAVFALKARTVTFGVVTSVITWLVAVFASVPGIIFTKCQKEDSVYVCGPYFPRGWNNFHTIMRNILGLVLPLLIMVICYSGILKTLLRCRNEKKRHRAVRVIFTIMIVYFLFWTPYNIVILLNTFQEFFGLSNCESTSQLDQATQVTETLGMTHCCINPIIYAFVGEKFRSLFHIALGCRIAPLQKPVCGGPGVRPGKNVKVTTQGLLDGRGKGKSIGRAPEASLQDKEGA
C-C chemokine receptor type 5, sequence (P51681 whole entry): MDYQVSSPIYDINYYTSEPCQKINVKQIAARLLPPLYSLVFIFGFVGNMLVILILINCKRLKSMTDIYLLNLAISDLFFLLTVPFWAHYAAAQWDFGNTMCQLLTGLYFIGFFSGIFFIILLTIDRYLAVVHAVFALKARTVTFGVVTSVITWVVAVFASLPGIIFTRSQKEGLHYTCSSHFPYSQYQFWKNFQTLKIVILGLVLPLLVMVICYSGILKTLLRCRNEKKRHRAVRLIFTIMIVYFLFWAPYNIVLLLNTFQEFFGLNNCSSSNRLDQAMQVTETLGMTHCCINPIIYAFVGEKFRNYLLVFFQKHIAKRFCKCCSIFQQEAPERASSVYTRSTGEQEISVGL

For orientation: IC50 means the concentration at which inhibition is half-maximal. The Ki is the dissociation constant of the complex between target and ligand, obtained from inhibition or displacement. For the compound `COc1ccc(CCN(C)CCCC(C#N)(c2ccc(OC)c(OC)c2)C(C)C)cc1OC` (stereo not given), the IC50 entry (in test [1]; in test [2]; in test [3]; against Adenosine receptor A3 (cho-k1); in test [4]; in test [5]) was “Not Active” throughout. Moreover, in test [6] (read-out: IC50), the IC50 was determined as 5.52 µM. The Ki entry was “Not Active” in test [1], “Not Active” in test [3] and 3.68 µM in test [6] (read-out: Ki).

In the case of `CC(C)Cc1ccc([C@@H](C)C(=O)O)cc1` [(R)-IBUPROPHEN], the IC50 entry (in test [1]; in test [2]; in test [3]; on Adenosine receptor A3 (cho-k1); in test [4]; in test [5]) was “Not Active” in each case. The IC50 entry in test [6] was “Not Active”. The Ki result in test [1], in test [3] and in test [6] was “Not Active” in each case.

For the compound `CC(C)NCC(O)c1ccc(O)c(O)c1` (stereo not given) [ISOPROTERENOL], the IC50 entry (in test [1]; in test [3]; on Adenosine receptor A3 (cho-k1); in test [4]; in test [5]; in test [6]) was “Not Active” each time. Also, the Ki entry in test [1], in test [3] and in test [6] was “Not Active” each time.

Consider `NC(=O)N1C(=O)/C(=C(\O)c2cccs2)c2cc(Cl)ccc21` [TENIDAP], for which the IC50 entry (in test [1]; in test [2]; in test [3]; against Adenosine receptor A3 (cho-k1); in test [4]; in test [5]) was “Not Active” each time. Also, the 50% inhibitory concentration (IC50) entry in test [6] is given as “Not Active”. Further, the Ki result in test [1], in test [3] and in test [6] was “Not Active” throughout.

For the compound `NC1CCN(c2nc3c(cc2F)c(=O)c(C(=O)O)cn3-c2ccc(F)cc2F)C1` (stereo not given) [TOSUFLOXACIN], the IC50 result (in test [1]; in test [2]; in test [3]; against Adenosine receptor A3 (cho-k1); in test [4]; in test [5]) was “Not Active” throughout. Besides, the IC50 entry in test [6] was “Not Active”. For the same compound, the inhibitory constant (Ki) result in test [1], in test [3] and in test [6] was “Not Active” throughout.

As to `N#Cc1ccc(C(c2ccc(C#N)cc2)n2cncn2)cc1` [LETROZOLE], the half-maximal inhibitory concentration (IC50) result (in test [1]; in test [2]; in test [3]; against Adenosine receptor A3 (cho-k1); in test [4]; in test [5]) was “Not Active” throughout. For the same compound, the concentration for half-maximal inhibition (IC50) entry in test [6] was “Not Active”. The Ki result in test [1], in test [3] and in test [6] was “Not Active” throughout.

As for `O=C(Nc1ccc(Br)cc1)c1cc(Br)cc(Br)c1O` [TRIBROMSALAN], the IC50 result (in test [1]; in test [2]; in test [3]; against Adenosine receptor A3 (cho-k1); in test [4]; in test [5]) was “Not Active” in each case. Moreover, in test [6], the IC50 entry is given as “Not Active”. The inhibition constant (Ki) result in test [1], in test [3] and in test [6] was “Not Active” each time.

Consider `O=C1Nc2ccc(Cl)cc2C(c2ccccc2Cl)=NC1O` (stereo not given) [LORAZEPAM], for which the IC50 in test [1] (read-out: IC50) is 0.00635 µM; in test [2], “Not Active”; in test [3], “Not Active”; at Adenosine receptor A3 (cho-k1) it was “Not Active”; in test [4], “Not Active”; in test [5], “Not Active”. In test [6], the IC50 entry is on record as “Not Active”. The Ki in test [1] (read-out: Ki) is 0.00518 µM; in test [3], “Not Active”; in test [6], “Not Active”.

With `CC(C)Oc1ccc2c(=O)c(-c3ccccc3)coc2c1` [IPRIFLAVONE], the IC50 entry (in test [1]; in test [3]; against Adenosine receptor A3 (cho-k1); in test [4]; in test [5]; in test [6]) was “Not Active” throughout. The Ki entry in test [1], in test [2], in test [3] and in test [6] was “Not Active” throughout.

With `CNC1(c2ccccc2Cl)CCCCC1=O` (stereo not given) [KETAMINE], the concentration for half-maximal inhibition (IC50) result (in test [1]; in test [2]; in test [3]; on Adenosine receptor A3 (cho-k1); in test [4]; in test [5]) was “Not Active” each time. In test [6], the IC50 result is on record as “Not Active”. Besides, the Ki entry in test [1], in test [3] and in test [6] was “Not Active” each time.

As to `O=C(O)c1cn(-c2ccc(F)cc2)c2cc(N3CCNCC3)c(F)cc2c1=O` [SARAFLOXACIN], the IC50 entry (in test [1]; in test [2]; in test [3]; on Adenosine receptor A3 (cho-k1); in test [4]; in test [5]) was “Not Active” throughout. Moreover, the IC50 result in test [6] was “Not Active”. In addition, the inhibitory constant (Ki) entry in test [1], in test [3] and in test [6] was “Not Active” each time.

Consider `CCN(CC)CCOc1ccc(/C(=C(/Cl)c2ccccc2)c2ccccc2)cc1` [ENCLOMIPHENE], for which the IC50 result in test [2], in test [4] and in test [5] was “Not Active” in each case.

On to `CN[C@H]1CC[C@@H](c2ccc(Cl)c(Cl)c2)c2ccccc21` [SERTRALINE], for which the half-maximal inhibitory concentration (IC50) result (in test [2]; against Adenosine receptor A3 (cho-k1); in test [4]; in test [5]) was “Not Active” in each case.

With `CN(C)CCOC(c1ccccc1)c1ccccc1` [DIPHENHYDRAMINE], the IC50 entry (in test [2]; on Adenosine receptor A3 (cho-k1); in test [4]; in test [5]) was “Not Active” each time.

For `Fc1ccc(C(c2ccc(F)cc2)N2CCN(C/C=C/c3ccccc3)CC2)cc1` [FLUNARIZINE], the IC50 result is “Not Active” in test [2], 5.2 µM at Adenosine receptor A3 (read-out: IC50), “Not Active” in test [4] and “Not Active” in test [5]. Moreover, the Ki on Adenosine receptor A3 (read-out: Ki) amounted to 2.94 µM.

Take `CC(C)NCC(O)c1ccc(NS(C)(=O)=O)cc1` (stereo not given) [SOTALOL]: the IC50 result (in test [1]; in test [3]; on Adenosine receptor A3 (cho-k1); in test [4]; in test [5]; in test [6]) was “Not Active” each time. Moreover, the Ki result in test [1], in test [3] and in test [6] was “Not Active” in each case.

Consider `CNCCC(Oc1ccc(C(F)(F)F)cc1)c1ccccc1` (stereo not given) [FLUOXETINE], for which the IC50 result (in test [2]; on Adenosine receptor A3 (cho-k1); in test [4]; in test [5]) was “Not Active” each time.

Consider `Cc1ccc(NC(=O)c2ccc(CN3CCN(C)CC3)cc2)cc1Nc1nccc(-c2cccnc2)n1` [IMATINIB], for which the IC50 result (in test [2]; against Adenosine receptor A3 (cho-k1); in test [4]; in test [5]) was “Not Active” each time.

`Clc1ccc(COC(Cn2ccnc2)c2ccc(Cl)cc2Cl)cc1` (stereo not given) [ECONAZOLE]: the IC50 entry in test [2], in test [4] and in test [5] was “Not Active” throughout.

(Values after ChEMBL document CHEMBL1909046, “DrugMatrix in vitro pharmacology data”.)
